Data reported in patent publication US10639285B2 (Aurea Biolabs Private Limited, priority 2014, dated 2020).

Assay: Absorption of curcumin and white curcumin in the blood plasma (FIG. 3)
Assay type: in vivo

COc1cc(C=CC(=O)CC(=O)C=Cc2ccc(O)c(OC)c2)ccc1O [curcumin, 1,7 bis (4-hydroxy-3-methoxy phenyl)-1,6 heptadiene-3,5-dione]
time of absorption in the blood plasma: 2 h
